# Experimental data from patent publication US20260365642A1, “ANTIPARASITIC COMPOUNDS” (Animol Discovery, Inc., priority 2023, published 2026).
# System: Dirofilaria immitis L1 larvae
# Test: Screening against microfilaria (L1 larvae) of Dirofilaria immitis, survival/motility
# Assay type: in vivo
# Conditions: 72 h, read-out: Ranked D. immitis L1 MED Activity
# Protocol: Example 44. Screening of Compounds Against Microfilaria of Dirofilaria immitis
# To evaluate the efficacy of compounds of the disclosure against Dirofilaria immitis, L1 stage larvae were exposed to various concentrations of the compounds to determine survival or paralysis of the larvae. Results are reported as the minimum effective dose (MED), defined as the concentration required to eliminate motility.
# To perform the assay, microfilaria of Dirofilaria immitis were added to the wells of a microtiter plate containing buffer and the test compounds in DMSO. Microfilaria exposed to DMSO alone served as controls. An assessment was conducted at 72 hours to determine survival of the microfilaria.
row,Structure (SMILES),minimal effective concentration [µM]
1,"CN(C)CCN(CC1CN(S(C)(=O)=O)CCO1)c1cc(N2CCCC3(CCCCC3)C2)nc(C(F)(F)F)n1 (centres unmarked) [Compound 39, N1-(6-(2-azaspiro[5.5]undecan-2-yl)-2-(trifluoromethyl)pyrimidin-4-yl)-N2,N2-dimethyl-N1-((4-(methylsulfonyl)morpholin-2-yl)methyl)ethane-1,2-diamine]",< 10000
2,"CN(CC1CN(S(C)(=O)=O)C1)c1cc(N2CCCC3(CCCCC3)C2)nc(C(F)(F)F)n1 [Compound 13, N-methyl-N-((1-(methylsulfonyl)azetidin-3-yl)methyl)-6-(2-azaspiro[5.5]undecan-2-yl)-2-(trifluoromethyl)pyrimidin-4-amine]",< 10000
3,"CN(C[C@H]1CN(S(C)(=O)=O)CCO1)c1cc(N2CCCC3(CCCCC3)C2)nc(C(F)(F)F)n1 [Compound 1, (S)-N-methyl-N-((4-(methylsulfonyl)morpholin-2-yl)methyl)-6-(2-azaspiro[5.5]undecan-2-yl)-2-(trifluoromethyl)pyrimidin-4-amine]",< 10000
4,"CN(CC1CN(S(C)(=O)=O)CCO1)c1cc(N2CCSC3(CCCCC3)C2)nc(C(F)(F)F)n1 (centres unmarked) [Compound 28, N-methyl-N-((4-(methylsulfonyl)morpholin-2-yl)methyl)-6-(1-thia-4-azaspiro[5.5]undecan-4-yl)-2-(trifluoromethyl)pyrimidin-4-amine]",< 10000
5,"CN(CC1CN(S(C)(=O)=O)CCO1)c1cc(N2CC3CC(C2)O3)nc(C(F)(F)F)n1 (centres unmarked) [Compound 18, 6-(6-oxa-3-azabicyclo[3.1.1]heptan-3-yl)-N-methyl-N-((4-(methylsulfonyl)morpholin-2-yl)methyl)-2-(trifluoromethyl)pyrimidin-4-amine]",> 100000
6,"CN(CC1CN(S(C)(=O)=O)CCS1)c1cc(N2CCSC3(CCCCC3)C2)nc(C(F)(F)F)n1 (centres unmarked) [Compound 30, N-methyl-N-((4-(methylsulfonyl)thiomorpholin-2-yl)methyl)-6-(1-thia-4-azaspiro[5.5]undecan-4-yl)-2-(trifluoromethyl)pyrimidin-4-amine]",< 10000
7,"CN(CC1CN(S(C)(=O)=O)CCCO1)c1cc(N2CCCC3(CCCCC3)C2)nc(C(F)(F)F)n1 (centres unmarked) [Compound 35, N-methyl-N-((4-(methylsulfonyl)-1,4-oxazepan-2-yl)methyl)-6-(2-azaspiro[5.5]undecan-2-yl)-2-(trifluoromethyl)pyrimidin-4-amine]",< 10000
8,"CN(CC1CN(S(C)(=O)=O)CCO1)c1cc(N2CC3CCC(C2)O3)nc(C(F)(F)F)n1 (centres unmarked) [Compound 17, 6-(8-oxa-3-azabicyclo[3.2.1]octan-3-yl)-N-methyl-N-((4-(methylsulfonyl)morpholin-2-yl)methyl)-2-(trifluoromethyl)pyrimidin-4-amine]",> 100000
9,"CS(=O)(=O)N1CC2(CC(Nc3cc(N4CCCC5(CCCCC5)C4)nc(C(F)(F)F)n3)C2)C1 [Compound 12, N-(6-(2-azaspiro[5.5]undecan-2-yl)-2-(trifluoromethyl)pyrimidin-4-yl)-2-(methylsulfonyl)-2-azaspiro[3.3]heptan-6-amine]",> 100000
10,"CCN(CC1CN(S(C)(=O)=O)CCO1)c1cc(N2CCOC3(CCCCC3)C2)nc(C(F)(F)F)n1 (centres unmarked) [Compound 20, N-ethyl-N-((4-(methylsulfonyl)morpholin-2-yl)methyl)-6-(1-oxa-4-azaspiro[5.5]undecan-4-yl)-2-(trifluoromethyl)pyrimidin-4-amine]",< 10000
11,"CS(=O)(=O)N1CCOC(CN(Cc2ccccc2)c2cc(N3CCOC4(CCCCC4)C3)nc(C(F)(F)F)n2)C1 (centres unmarked) [Compound 19, N-benzyl-N-((4-(methylsulfonyl)morpholin-2-yl)methyl)-6-(1-oxa-4-azaspiro[5.5]undecan-4-yl)-2-(trifluoromethyl)pyrimidin-4-amine]",> 100000
